Source: ChEMBL document CHEMBL3758169, “4-Aminoindazolyl-dihydrofuro[3,4-d]pyrimidines as non-covalent inhibitors of mutant epidermal growth factor receptor tyrosine kinase” (Bioorg Med Chem Lett, 2016)

Key:
[1] = target: Mitogen-activated protein kinase kinase kinase kinase 4 (Homo sapiens) (UniProt O95819); experiment: Inhibition of MAP4K4 (unknown origin) at 100 nM
[2] = target: Serine/threonine-protein kinase MARK2 (Homo sapiens) (UniProt Q7KZI7); experiment: Inhibition of MARK2 (unknown origin) at 100 nM
Chain of Serine/threonine-protein kinase MARK2 (Homo sapiens) (Q7KZI7 whole entry): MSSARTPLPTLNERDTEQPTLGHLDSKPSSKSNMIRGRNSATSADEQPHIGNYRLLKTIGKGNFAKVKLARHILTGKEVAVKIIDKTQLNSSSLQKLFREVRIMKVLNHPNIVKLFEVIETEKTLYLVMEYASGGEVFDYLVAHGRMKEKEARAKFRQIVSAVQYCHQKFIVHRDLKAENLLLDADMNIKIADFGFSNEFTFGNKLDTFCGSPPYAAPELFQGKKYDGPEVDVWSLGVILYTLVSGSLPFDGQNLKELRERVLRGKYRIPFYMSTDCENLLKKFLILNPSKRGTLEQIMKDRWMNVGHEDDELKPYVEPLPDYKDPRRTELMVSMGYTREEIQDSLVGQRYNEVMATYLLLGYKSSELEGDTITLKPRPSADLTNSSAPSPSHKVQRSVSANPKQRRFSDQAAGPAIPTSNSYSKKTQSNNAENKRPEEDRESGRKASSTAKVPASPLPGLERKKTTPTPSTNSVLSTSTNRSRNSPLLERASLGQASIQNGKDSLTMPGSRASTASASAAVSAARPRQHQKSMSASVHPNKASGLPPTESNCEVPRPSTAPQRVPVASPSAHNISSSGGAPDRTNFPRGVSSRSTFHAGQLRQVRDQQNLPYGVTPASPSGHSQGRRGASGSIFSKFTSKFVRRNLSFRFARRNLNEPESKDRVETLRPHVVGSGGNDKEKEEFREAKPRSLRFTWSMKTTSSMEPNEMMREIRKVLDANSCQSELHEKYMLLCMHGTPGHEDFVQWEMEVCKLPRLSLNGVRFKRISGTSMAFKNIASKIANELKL

[3] = target: Dual specificity mitogen-activated protein kinase kinase 2 (Homo sapiens) (UniProt P36507); experiment: Inhibition of MEK2 (unknown origin) at 100 nM
[4] = target: Mitogen-activated protein kinase kinase kinase 9 (Homo sapiens) (UniProt P80192); experiment: Inhibition of MLK1 (unknown origin) at 100 nM
[5] = target: Serine/threonine-protein kinase MRCK alpha (Homo sapiens) (UniProt Q5VT25); experiment: Inhibition of MRCKalpha (unknown origin) at 100 nM
Chain of Serine/threonine-protein kinase MRCK alpha (Homo sapiens) (Q5VT25 whole entry): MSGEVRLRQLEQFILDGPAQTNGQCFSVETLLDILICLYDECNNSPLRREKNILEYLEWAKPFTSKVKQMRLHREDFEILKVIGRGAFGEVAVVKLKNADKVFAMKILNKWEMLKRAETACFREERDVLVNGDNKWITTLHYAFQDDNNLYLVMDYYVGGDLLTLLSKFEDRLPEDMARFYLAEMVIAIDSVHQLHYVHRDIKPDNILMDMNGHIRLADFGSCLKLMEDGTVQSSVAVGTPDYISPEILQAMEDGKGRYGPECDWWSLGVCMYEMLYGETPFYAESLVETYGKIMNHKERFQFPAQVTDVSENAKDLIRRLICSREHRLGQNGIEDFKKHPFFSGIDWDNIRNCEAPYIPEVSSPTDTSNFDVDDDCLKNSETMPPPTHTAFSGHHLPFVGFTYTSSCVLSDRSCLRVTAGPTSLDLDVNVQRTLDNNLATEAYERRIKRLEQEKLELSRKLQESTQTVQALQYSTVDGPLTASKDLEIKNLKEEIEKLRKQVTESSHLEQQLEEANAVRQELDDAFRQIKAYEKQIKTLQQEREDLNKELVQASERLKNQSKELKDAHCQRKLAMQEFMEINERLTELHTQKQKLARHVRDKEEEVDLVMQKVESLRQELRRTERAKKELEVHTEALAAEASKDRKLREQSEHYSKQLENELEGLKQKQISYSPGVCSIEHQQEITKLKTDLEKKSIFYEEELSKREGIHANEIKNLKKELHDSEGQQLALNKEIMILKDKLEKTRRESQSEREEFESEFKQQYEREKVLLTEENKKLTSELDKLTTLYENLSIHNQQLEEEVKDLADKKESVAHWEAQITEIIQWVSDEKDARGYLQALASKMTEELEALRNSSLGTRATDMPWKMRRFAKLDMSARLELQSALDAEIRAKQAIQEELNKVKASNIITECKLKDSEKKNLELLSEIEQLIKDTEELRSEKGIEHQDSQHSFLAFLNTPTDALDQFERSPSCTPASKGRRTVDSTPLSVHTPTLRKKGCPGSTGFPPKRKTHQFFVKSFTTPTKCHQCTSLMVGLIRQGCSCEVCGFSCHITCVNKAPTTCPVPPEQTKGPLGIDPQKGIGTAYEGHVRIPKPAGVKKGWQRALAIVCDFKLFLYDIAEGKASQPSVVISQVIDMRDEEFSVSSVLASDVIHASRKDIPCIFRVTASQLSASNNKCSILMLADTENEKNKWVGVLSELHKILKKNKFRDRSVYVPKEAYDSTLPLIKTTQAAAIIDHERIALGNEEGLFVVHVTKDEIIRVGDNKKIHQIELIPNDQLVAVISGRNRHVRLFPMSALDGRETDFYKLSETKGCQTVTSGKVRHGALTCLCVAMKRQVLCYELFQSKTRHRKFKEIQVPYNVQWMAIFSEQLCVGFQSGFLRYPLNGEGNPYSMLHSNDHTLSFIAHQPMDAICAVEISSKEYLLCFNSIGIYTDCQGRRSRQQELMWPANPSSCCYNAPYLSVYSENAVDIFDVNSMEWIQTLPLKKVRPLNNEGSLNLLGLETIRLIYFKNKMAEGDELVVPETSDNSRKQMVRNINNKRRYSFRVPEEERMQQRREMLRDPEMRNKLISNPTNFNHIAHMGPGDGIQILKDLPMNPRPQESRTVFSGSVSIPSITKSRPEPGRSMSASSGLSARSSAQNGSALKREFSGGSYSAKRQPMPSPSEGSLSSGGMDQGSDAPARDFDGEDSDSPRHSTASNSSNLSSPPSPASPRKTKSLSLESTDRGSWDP

[6] = target: Ribosomal protein S6 kinase alpha-4 (Homo sapiens) (UniProt O75676); experiment: Inhibition of MSK2 (unknown origin) at 100 nM
[7] = target: SRSF protein kinase 3 (Homo sapiens) (UniProt Q9UPE1); experiment: Inhibition of MSSK1 (unknown origin) at 100 nM
[8] = target: Serine/threonine-protein kinase 24 (Homo sapiens) (UniProt Q9Y6E0); experiment: Inhibition of MST3 (unknown origin) at 100 nM
[9] = target: Serine/threonine-protein kinase 26 (Homo sapiens) (UniProt Q9P289); experiment: Inhibition of MST4 (unknown origin) at 100 nM
[10] = target: Myosin light chain kinase, smooth muscle (Homo sapiens) (UniProt Q15746); experiment: Inhibition of MYLK (unknown origin) at 100 nM
Homo sapiens = species: Homo sapiens; experiment: Inhibition of MET I250T mutant (unknown origin) at 100 nM
[11] = target: Platelet-derived growth factor receptor alpha (Homo sapiens) (UniProt P16234); experiment: Inhibition of PDGFRalpha (unknown origin) at 100 nM
[12] = test system: Platelet-derived growth factor receptor alpha (Homo sapiens), P16234 [V561D]; experiment: Inhibition of PDGFRalpha V561D mutant (unknown origin) at 100 nM
[13] = target: Phosphatidylinositol 4-phosphate 3-kinase C2 domain-containing subunit beta (Homo sapiens) (UniProt O00750); experiment: Inhibition of PI3KC2b (unknown origin) at 100 nM
[14] = target: Protein kinase C alpha type (Homo sapiens) (UniProt P17252); experiment: Inhibition of PKCalpha (unknown origin) at 100 nM
[15] = target: Protein kinase C theta type (Homo sapiens) (UniProt Q04759); experiment: Inhibition of PKCtheta (unknown origin) at 100 nM
[16] = target: Protein kinase C zeta type (Homo sapiens) (UniProt Q05513); experiment: Inhibition of PKCzeta (unknown origin) at 100 nM
[17] = target: cGMP-dependent protein kinase 1 (Homo sapiens) (UniProt Q13976); experiment: Inhibition of PKG1alpha (unknown origin) at 100 nM
[18] = target: Proto-oncogene tyrosine-protein kinase receptor Ret (Homo sapiens) (UniProt P07949); experiment: Inhibition of RET (unknown origin) at 100 nM
[19] = target: Serine/threonine-protein kinase Sgk2 (Homo sapiens) (UniProt Q9HBY8); experiment: Inhibition of SGK2 (unknown origin) at 100 nM
[20] = target: TGF-beta receptor type-1 (Homo sapiens) (UniProt P36897); experiment: Inhibition of TGFBR1 (unknown origin) at 100 nM
[21] = target: Testis-specific serine/threonine-protein kinase 2 (Homo sapiens) (UniProt Q96PF2); experiment: Inhibition of TSSK2 (unknown origin) at 100 nM
[22] = target: Serine/threonine-protein kinase 25 (Homo sapiens) (UniProt O00506); experiment: Inhibition of YSK1 (unknown origin) at 100 nM
Chain of Serine/threonine-protein kinase 25 (Homo sapiens) (O00506 whole entry, looked up): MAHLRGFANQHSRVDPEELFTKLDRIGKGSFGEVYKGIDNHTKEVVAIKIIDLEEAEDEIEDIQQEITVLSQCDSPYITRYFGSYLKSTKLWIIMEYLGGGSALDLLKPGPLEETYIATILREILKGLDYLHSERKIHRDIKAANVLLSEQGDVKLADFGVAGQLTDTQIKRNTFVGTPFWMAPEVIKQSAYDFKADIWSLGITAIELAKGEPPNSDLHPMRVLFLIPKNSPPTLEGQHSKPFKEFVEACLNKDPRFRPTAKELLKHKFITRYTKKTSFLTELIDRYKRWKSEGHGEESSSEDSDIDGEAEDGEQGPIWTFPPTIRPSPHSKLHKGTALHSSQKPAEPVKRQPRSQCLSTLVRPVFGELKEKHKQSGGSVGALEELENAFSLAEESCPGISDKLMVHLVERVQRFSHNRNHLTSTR

[23] = target: Mitogen-activated protein kinase 11 (Homo sapiens) (UniProt Q15759); experiment: Inhibition of p38beta(unknown origin) at 100 nM
[24] = target: Mitogen-activated protein kinase 13 (Homo sapiens) (UniProt O15264); experiment: Inhibition of p38delta(unknown origin) at 100 nM
Rattus norvegicus = experiment: Unbound AUC in rat at 5 mg/kg, po; format: ADME, organism-based; settings: in vivo
[25] = target: Activin receptor type-1B (Homo sapiens) (UniProt P36896); experiment: Inhibition of ACVR1B (unknown origin) at 100 nM
[26] = target: RAC-gamma serine/threonine-protein kinase (Homo sapiens) (UniProt Q9Y243); experiment: Inhibition of AKT3 (unknown origin) at 100 nM
[27] = target: Activin receptor type-1 (Homo sapiens) (UniProt Q04771); experiment: Inhibition of ALK2 (unknown origin) at 100 nM
Chain of Activin receptor type-1 (Homo sapiens) (Q04771 whole entry): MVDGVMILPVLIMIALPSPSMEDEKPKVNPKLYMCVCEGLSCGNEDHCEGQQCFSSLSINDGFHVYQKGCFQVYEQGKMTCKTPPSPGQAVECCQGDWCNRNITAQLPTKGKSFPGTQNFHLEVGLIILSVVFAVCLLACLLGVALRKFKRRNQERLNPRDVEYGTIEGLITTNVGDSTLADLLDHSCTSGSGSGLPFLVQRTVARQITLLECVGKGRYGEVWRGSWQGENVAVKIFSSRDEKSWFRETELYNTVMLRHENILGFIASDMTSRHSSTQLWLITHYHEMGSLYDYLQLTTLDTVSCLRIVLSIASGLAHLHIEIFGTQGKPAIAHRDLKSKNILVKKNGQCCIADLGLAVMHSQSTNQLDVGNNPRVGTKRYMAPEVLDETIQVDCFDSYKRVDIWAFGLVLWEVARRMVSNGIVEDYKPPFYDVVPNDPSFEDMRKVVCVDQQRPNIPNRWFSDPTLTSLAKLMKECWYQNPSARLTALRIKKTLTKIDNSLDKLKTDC

[28] = target: NUAK family SNF1-like kinase 1 (Homo sapiens) (UniProt O60285); experiment: Inhibition of ARK5 (unknown origin) at 100 nM
[29] = target: Cytoplasmic tyrosine-protein kinase BMX (Homo sapiens) (UniProt P51813); experiment: Inhibition of BMX (unknown origin) at 100 nM
[30] = target: Cyclin-dependent kinase 1/cyclin B1 (Homo sapiens) (UniProt P06493+P14635); experiment: Inhibition of CDK1/cyclinB (unknown origin) at 100 nM; format: protein-complex assay
[31] = target: CDK9/Cyclin K (Homo sapiens) (UniProt P50750+O75909); experiment: Inhibition of CDK9/cyclinK (unknown origin) at 100 nM; format: protein-complex assay
[32] = target: Casein kinase I isoform gamma-3 (Homo sapiens) (UniProt Q9Y6M4); experiment: Inhibition of CK1gamma3 (unknown origin) at 100 nM
[33] = target: Casein kinase II subunit alpha (Homo sapiens) (UniProt P68400); experiment: Inhibition of CK2alpha1 (unknown origin) at 100 nM
Chain of Casein kinase II subunit alpha (Homo sapiens) (P68400 whole entry, looked up): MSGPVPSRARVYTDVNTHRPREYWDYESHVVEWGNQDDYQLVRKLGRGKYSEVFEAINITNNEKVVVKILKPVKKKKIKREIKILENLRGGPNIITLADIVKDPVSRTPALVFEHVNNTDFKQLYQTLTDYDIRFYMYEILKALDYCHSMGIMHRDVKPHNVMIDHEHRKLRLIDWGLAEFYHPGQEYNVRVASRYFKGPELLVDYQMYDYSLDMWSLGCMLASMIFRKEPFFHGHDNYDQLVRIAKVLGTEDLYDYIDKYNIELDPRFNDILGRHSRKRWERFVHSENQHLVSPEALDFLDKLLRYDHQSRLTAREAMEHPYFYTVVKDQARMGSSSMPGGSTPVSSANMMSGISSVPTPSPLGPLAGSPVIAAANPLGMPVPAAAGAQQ

[34] = target: Calcium/calmodulin-dependent protein kinase type 1 (Homo sapiens) (UniProt Q14012); experiment: Inhibition of CaMKI (unknown origin) at 100 nM
[35] = target: Epithelial discoidin domain-containing receptor 1 (Homo sapiens) (UniProt Q08345); experiment: Inhibition of DDR1 (unknown origin) at 100 nM
[36] = target: Dual specificity tyrosine-phosphorylation-regulated kinase 1A (Homo sapiens) (UniProt Q13627); experiment: Inhibition of DYRK1A (unknown origin) at 100 nM
[37] = target: Dual specificity tyrosine-phosphorylation-regulated kinase 4 (Homo sapiens) (UniProt Q9NR20); experiment: Inhibition of DYRK4 (unknown origin) at 100 nM
[38] = target: Ephrin type-A receptor 3 (Homo sapiens) (UniProt P29320); experiment: Inhibition of EPHA3 (unknown origin) at 100 nM
[39] = target: Fibroblast growth factor receptor 4 (Homo sapiens) (UniProt P22455); experiment: Inhibition of FGFR4 (unknown origin) at 100 nM
[40] = target: Interleukin-1 receptor-associated kinase 1 (Homo sapiens) (UniProt P51617); experiment: Inhibition of IRAK1 (unknown origin) at 100 nM
[41] = target: Casein kinase II subunit alpha' (Homo sapiens) (UniProt P19784); experiment: Inhibition of CK2alpha2 (unknown origin) at 100 nM

Chain of Mitogen-activated protein kinase kinase kinase kinase 4 (Homo sapiens) (O95819 2-1239 limits assumed): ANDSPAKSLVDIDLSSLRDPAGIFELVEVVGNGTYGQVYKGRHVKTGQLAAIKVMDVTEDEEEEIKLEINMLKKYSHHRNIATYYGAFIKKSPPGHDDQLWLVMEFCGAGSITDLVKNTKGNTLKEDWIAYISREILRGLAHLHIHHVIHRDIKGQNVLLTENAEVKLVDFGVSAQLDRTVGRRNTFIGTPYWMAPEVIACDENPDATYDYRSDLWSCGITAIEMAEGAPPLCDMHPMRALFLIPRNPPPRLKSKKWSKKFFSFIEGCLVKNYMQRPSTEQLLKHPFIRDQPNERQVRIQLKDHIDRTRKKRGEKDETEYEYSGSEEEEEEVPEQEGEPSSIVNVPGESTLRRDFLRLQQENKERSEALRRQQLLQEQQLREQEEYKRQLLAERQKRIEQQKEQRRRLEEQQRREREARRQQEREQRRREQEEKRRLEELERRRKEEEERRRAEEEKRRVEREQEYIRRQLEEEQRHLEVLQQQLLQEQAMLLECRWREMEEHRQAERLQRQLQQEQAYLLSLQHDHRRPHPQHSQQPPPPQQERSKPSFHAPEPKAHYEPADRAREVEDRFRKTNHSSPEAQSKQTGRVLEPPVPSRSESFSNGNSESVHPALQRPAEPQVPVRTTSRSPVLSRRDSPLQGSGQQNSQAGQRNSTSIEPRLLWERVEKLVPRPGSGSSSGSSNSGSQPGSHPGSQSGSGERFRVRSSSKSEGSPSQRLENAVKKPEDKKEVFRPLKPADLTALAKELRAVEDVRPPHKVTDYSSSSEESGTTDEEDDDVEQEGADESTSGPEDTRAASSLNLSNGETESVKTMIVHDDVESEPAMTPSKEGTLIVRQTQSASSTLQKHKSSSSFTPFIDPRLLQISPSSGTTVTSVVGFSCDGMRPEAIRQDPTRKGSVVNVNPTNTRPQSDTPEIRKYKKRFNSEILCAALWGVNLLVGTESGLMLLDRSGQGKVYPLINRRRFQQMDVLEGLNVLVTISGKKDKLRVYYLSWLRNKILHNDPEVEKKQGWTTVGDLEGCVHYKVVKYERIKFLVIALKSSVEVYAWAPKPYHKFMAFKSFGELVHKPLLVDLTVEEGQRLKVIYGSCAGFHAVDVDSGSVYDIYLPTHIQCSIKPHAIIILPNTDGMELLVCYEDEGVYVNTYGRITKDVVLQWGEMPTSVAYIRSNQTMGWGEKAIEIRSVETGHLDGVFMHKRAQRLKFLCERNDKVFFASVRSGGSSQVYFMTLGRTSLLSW

`CC1(C)OCc2c(Nc3n[nH]c4ccccc34)nc(-c3cn[nH]c3)nc21` gave an inhibition [1] of 51.3%, an inhibition [2] of -5.3% and an inhibition [3] of 12.8%. It also gave an inhibition [4] of 2.9%, an inhibition [5] of 1.9% and an inhibition [6] of 15.2%. For the same compound, the inhibition [7] was -3.2%, the inhibition [8] was 0.8% and the inhibition [9] was 0.2%. It also gave an inhibition [10] of 2.8%, an inhibition (Homo sapiens) of 4% and an inhibition [11] of 57.1%. For the same compound, the inhibition [12] was 89.2%, the inhibition [13] was 18.8% and the inhibition [14] was 7%. It also gave an inhibition [15] of 4.5%, an inhibition [16] of 7.2% and an inhibition [17] of 3.4%. It also gave an inhibition [18] of 98.2%, an inhibition [19] of 2.8% and an inhibition [20] of 97.9%. It also gave an inhibition [21] of 4%, an inhibition [22] of 5.1% and an inhibition [23] of 8.7%. The inhibition [24] was 8.6%, the fAUC (Rattus norvegicus) was 0.05 µM·h and the inhibition [25] was 70.7%. The inhibition [26] was 10.4%, the inhibition [27] was 30.3% and the inhibition [28] was 11.6%. For the same compound, the inhibition [29] was 13.7%, the inhibition [30] was -3.1% and the inhibition [31] was -3.7%. It also gave an inhibition [32] of 1.8%, an inhibition [33] of 1.4% and an inhibition [34] of 4.5%. The inhibition [35] was 52.6%, the inhibition [36] was 9.6% and the inhibition [37] was 0.7%. It also gave an inhibition [38] of 4.2%, an inhibition [39] of 14.7% and an inhibition [40] of 2.2%. For the same compound, the inhibition [41] was 4.2%.
